Legend:
GRPR (PC-3 cells) = target: T1, GRPR (PC-3 cells) (Homo sapiens, UniProt P30550); experiment: Fluorometric intracellular calcium release assay; format: cell-based; conditions: 50 nM, n = 3
T1 construct: GRPR-expressing prostate cancer PC-3 cells; host or cells: PC-3 prostate adenocarcinoma cells
Method: The antagonist/agonist characteristics of Lu-TacsBOMB5, Lu-LW01110, and Lu-LW01142 were determined following previously published procedure. A 96-well clear bottom black plate was seeded with 5 × 10^4 PC-3 prostate cancer cells/100 μL/well 24 h prior to the assay. The calcium-sensitive dye (FLIPR Calcium 6 assay kit from Molecular Devices, San Jose, CA, USA) in loading buffer (100 μL/well) was added into the 96-well plate, followed by 1 h incubation at 37 °C. After that, the plate was transferred into a FlexStation 3 microplate reader (Molecular Devices, San Jose, CA, USA). Lu-complexed nonradioactive standard (50 nM), [D-Phe^6,Leu-NHEt^13,des-Met^14]Bombesin(6–14) (50 nM, antagonist control), bombesin (50 nM, agonist control), adenosine triphosphate (ATP, 50 nM, positive control), or DPBS (blank control) was added, and the fluorescent signals were acquired for 2 min (λEx = 485 nm; λEm = 525 nm; n = 3). The relative fluorescent unit (RFU = max − min) was calculated to determine the agonistic/antagonistic characteristics for the tested ligands.

PC-3 tumor xenografts = conditions: in vivo, 1 h; cited from earlier work

T1 sequence (P30550 whole entry): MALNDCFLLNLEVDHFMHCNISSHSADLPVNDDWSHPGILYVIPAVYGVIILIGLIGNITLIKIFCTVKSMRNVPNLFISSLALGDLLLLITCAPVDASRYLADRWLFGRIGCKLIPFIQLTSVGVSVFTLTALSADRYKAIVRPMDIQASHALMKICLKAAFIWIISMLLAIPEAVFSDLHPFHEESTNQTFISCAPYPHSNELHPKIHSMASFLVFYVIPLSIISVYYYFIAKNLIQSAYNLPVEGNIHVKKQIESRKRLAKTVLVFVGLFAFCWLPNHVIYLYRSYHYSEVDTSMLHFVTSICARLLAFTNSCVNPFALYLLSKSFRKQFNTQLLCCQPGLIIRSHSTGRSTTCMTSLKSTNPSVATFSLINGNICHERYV

Compound | Ca2+ efflux (RFU = max − min) (GRPR (PC-3 cells)) | uptake in PC-3 tumor xenografts (PC-3 tumor xenografts)
^68Ga-DOTA-Pip-[D-Phe^6,NMe-Gly^11,Leu^13ψThz^14]Bombesin(6–14) [[^68Ga]Ga-TacsBOMB5] |  | 15.7 ± 2.17 %ID/g
^68Ga-DOTA-Pip-[D-Phe^6,Tle^10,NMe-His^12,Thz^14]Bombesin(6–14) [[^68Ga]Ga-LW01110] |  | 16.6 ± 1.60 %ID/g

More lines, main results first:

Ca2+ efflux (RFU = max − min) (GRPR (PC-3 cells)) | Compound | uptake in PC-3 tumor xenografts (PC-3 tumor xenografts)
150 ± 40.7 RFUs | Nc1ncnc2c1ncn2[C@@H]1O[C@H](COP(=O)(O)OP(=O)(O)OP(=O)(O)O)[C@@H](O)[C@H]1O [ATP, adenosine triphosphate] | 
29.7 ± 2.73 RFUs | [D-Phe^6,Leu-NHEt^13,des-Met^14]Bombesin(6–14) | 
235 ± 15.2 RFUs | bombesin | 

Reference: article PMC12030706, “Novel ^177Lu-Labeled [Thz^14]Bombesin(6–14) Derivatives with Low Pancreas Accumulation for Targeting Gastrin-Releasing Peptide Receptor-Expressing Cancer” (Pharmaceuticals, 2025)
